Legend:
[1] = PK/PD target attainment at first TDM (eAUC0–24h and trough thresholds)
Description: All patients performed daptomycin TDM according to the clinical practice, and its daily area under the concentration–time curve (eAUC0–24h; including eAUC24–48h in case of other day administration, meaning when the drug dose was given every 48 h instead of every 24 h as indicated in the SmPC as the standard dose) was estimated according to the following Equation (1) reported in the literature [18, 19], based on daptomycin trough and peak plasma concentrations: (1) AUC0–24 h = 0.5 × t^′×Cmax +∫t^′infinityCmax ×e^−kel×(t)dt− ∫24infinityCmin ×e^−kel×(t)dt
For the analysis of the safety profile of daptomycin, we considered the main PK parameters expressing the overall exposure to the antibiotic and its property to be cleared, such as eAUC0–24h and the trough plasma concentrations, respectively. For the efficacy daptomycin PK/PD targets, we considered the main PK parameter indicating the daily exposure to daptomycin which is represented by the eAUC0–24h and we combined this with the pertinent PD parameter of interest of bacterial disease which is the Minimum Inhibitory Concentration (MIC) of the isolated pathogen.

[2] = human, in vivo
Description: This is a retrospective, monocentric study, including adult patients with a suspected or documented diagnosis of Gram-positive BJI who received daptomycin and whose plasma concentrations were measured once the steady state was reached. The study was approved by the Institutional Review Board of University of Udine (Prot IRB: 266/2023). We included all patients who were hospitalized at our University Hospital from July 2022 to December 2023. Data were retrieved from the hospital’s electronic registry, selecting all TDM performed by the Clinical Pharmacology Institute of ASU FC in the time frame of interest and then identifying the analyses required by the orthopedic wards (see Figure 1).
The peak and trough concentrations of daptomycin were determined through blood samples collected 30 min after the drug infusion and before dosing, respectively, on day 3 of therapy, once steady state was achieved. The drug clearance was estimated as apparent clearance, calculated as the […].
Daptomycin concentrations were measured by a validated High-Performance Liquid Chromatography–Ultraviolet (HPLC-UV) method previously published, using Nexera-i 2040 LC, Shimadzu® (Shimadzu USA Manufacturing INC, Canby, OR, USA).

[3] = C-reactive protein as surrogate efficacy marker during TDM; format: in vivo, human
Description: Therefore, we attempted to correlate the targeted AUC0–24h with CRP levels measured after treatment. The CRP was obtained at the time of diagnosis and at the end of treatment or between stages in two-stage exchange arthroplasty.

[4] = single patient with CPK 1000 U/L

With `CCCCCCCCCC(=O)N[C@@H](Cc1c[nH]c2ccccc12)C(=O)N[C@H](CC(N)=O)C(=O)N[C@@H](CC(=O)O)C(=O)N[C@@H]1C(=O)NCC(=O)N[C@@H](CCCN)C(=O)N[C@@H](CC(=O)O)C(=O)N[C@H](C)C(=O)N[C@@H](CC(=O)O)C(=O)NCC(=O)N[C@H](CO)C(=O)N[C@@H]([C@H](C)CC(=O)O)C(=O)N[C@@H](CC(=O)c2ccccc2N)C(=O)O[C@@H]1C` [daptomycin, Daptomycin] the “cases with increase in absolute eosinophil count at follow-up” value (132 eosinophil count measurements at basal time and during TDM) was 108 cases, the other adverse events (during therapy) was “No other adverse events were reported” and the “eAUC0–24h of the patient with high CPK” value [4] was 1051 µg·h/mL. For the same compound, the “plasma peak concentration of the patient with high CPK” value [4] was 84.4 mg/L, the “plasma trough concentration of the patient with high CPK” value [4] was 18.7 mg/L and the “plasma CPK concentration reached in the one patient with high CPK” value (single patient, baseline 325 U/L) was 1000 U/L. For the same compound, the “patients not receiving adequate doses for the PK/PD efficacy and safety targets” value ([1]; dosing suggested in the SmPC) was 68.8%, the “patients underexposed (eAUC0–24h < 666 mg·h/L)” value ([1]; first TDM, 6 of 77 patients, doses according to SmPC) was 7.8% and the “patients with high eAUC0–24h to monitor (939–1174 mg·h/L) and trough <24.3 mg/L” value ([1]; first TDM, 16 of 77 patients) was 20.8%. For the same compound, the “patients with eAUC0–24h > 1174 mg·h/L” value ([1]; first TDM, 26 of 77 patients) was 33.8%, the “patients on target (eAUC0–24h 666–939 mg·h/L and trough < 24.3 mg/L)” value ([1]; first TDM, 27 of 77 patients) was 35.1% and the “estimated AUC0–24h, maximum value” [2] was 2263 µg·h/mL. For the same compound, the “estimated AUC0–24h, minimum value” [2] was 395.7 µg·h/mL, the “exposure in females compared with males (eAUC0–24h, trough, peak, clearance, also dose-adjusted)” value [2] was “Females are overexposed to daptomycin compared with males” and the “median dose-adjusted eAUC0–24h (eAUC0–24h/D), BMI > 25 kg/m^2” value [2] was 112.6. For the same compound, the “median dose-adjusted eAUC0–24h (eAUC0–24h/D), BMI ≤ 25 kg/m^2” value [2] was 89.58, the “median eAUC between 24 and 48 h after dosing (eAUC24–48h), other day administration” value [2] was 339.8 µg·h/mL and the “median eAUC within 24 h from dosing, other day administration” value [2] was 1060 µg·h/mL. For the same compound, the “median estimated AUC0–24h” value [2] was 996.3 µg·h/mL, the “median estimated drug clearance” value [2] was 12.2 mL/min and the “median CRP during TDM” value ([3]; 155 measurements, median) was 28.99 mg/L. The “median CRP when eAUC0–24h >939 mg·h/L” value ([3]; aggressive eAUC0–24h group, Mann–Whitney p = 0.029 vs <939) was 17.47 mg/L and the “median CRP when eAUC0–24h < 939 mg·h/L” value ([3]; eAUC0–24h < 939 mg·h/L group) was 40.60 mg/L.
